According to US10538498B2, “1,3,4-oxadiazole sulfonamide derivative compounds as histone deacetylase 6 inhibitor, and the pharmaceutical composition comprising the same” (Chong Kun Dang Pharmaceutical Corp., priority 2015, dated 2020):

Biological target: T1, human recombinant HDAC6 (Homo sapiens, UniProt Q9UBN7)
T1 construct: purchased Calbiochem 382180
T1 sequence (Q9UBN7 1-1215): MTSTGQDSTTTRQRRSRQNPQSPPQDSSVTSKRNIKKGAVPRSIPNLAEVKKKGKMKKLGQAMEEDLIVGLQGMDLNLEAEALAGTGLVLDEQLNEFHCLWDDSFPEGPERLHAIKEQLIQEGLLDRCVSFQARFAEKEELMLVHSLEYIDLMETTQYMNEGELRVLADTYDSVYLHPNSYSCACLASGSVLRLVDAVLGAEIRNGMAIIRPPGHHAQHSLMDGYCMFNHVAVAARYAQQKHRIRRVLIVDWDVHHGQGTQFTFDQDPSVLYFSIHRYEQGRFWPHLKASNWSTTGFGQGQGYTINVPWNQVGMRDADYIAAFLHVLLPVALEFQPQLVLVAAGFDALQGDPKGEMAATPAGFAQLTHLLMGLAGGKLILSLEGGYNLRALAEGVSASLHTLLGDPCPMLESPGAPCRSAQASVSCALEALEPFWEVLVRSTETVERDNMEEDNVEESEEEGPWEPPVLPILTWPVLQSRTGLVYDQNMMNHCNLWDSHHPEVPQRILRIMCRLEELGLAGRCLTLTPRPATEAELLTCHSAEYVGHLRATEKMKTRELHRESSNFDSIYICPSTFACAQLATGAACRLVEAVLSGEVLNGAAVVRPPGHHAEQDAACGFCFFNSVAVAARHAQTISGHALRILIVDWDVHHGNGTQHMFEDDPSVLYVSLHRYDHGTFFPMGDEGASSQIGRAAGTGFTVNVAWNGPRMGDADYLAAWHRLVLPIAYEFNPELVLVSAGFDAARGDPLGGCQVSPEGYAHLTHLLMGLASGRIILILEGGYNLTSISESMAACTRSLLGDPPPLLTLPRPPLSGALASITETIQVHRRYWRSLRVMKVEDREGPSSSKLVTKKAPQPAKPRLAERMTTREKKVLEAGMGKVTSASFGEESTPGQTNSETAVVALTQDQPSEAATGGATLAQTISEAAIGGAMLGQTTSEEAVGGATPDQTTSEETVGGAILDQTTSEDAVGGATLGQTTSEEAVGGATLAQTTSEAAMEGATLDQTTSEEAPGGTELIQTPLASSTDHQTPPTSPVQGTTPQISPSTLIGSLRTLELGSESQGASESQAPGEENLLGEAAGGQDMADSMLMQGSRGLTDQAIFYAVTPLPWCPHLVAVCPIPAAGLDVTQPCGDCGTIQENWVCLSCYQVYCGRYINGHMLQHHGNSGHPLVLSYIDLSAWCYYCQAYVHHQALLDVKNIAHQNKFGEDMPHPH
Assay: HDAC6 enzyme activity inhibition assay (HDAC Fluorimetric Drug Discovery Kit)
Assay type: biochemical
Settings: for HDAC6 selectivity (fold): HDAC1 vs HDAC6; for IC50: same protocol as the HDAC1 enzyme activity test
Experimental: In order to examine the HDAC6 selectivity of the compounds of formula I of the present invention by HDAC1 and HDAC6 enzymatic activity inhibition assays, an experiment was performed using a conventional substance as a control.
HDAC enzyme activity was measured using a HDAC Fluorimetric Drug Discovery Kit (BML-AK511, 516, Enzo Life Science). For the HDAC1 enzyme activity test, human recombinant HDAC1 (BML-SE456) was used as an enzyme source, and Fluor de Lys®-“SIRT1 (BNL-KI177) was used as a substrate. A 5-fold dilution of the compound was seeded into a 96-well plate, and then 0.3 μg of the enzyme and 10 μM of the substrate were added to each well of the plate and allowed to react at 30° C. for 60 minutes. Then, Fluor de Lys®-Developer II (BML-KI176) was added thereto and allowed to react for 30 minutes, after which the fluorescence value (Ex 360, Em 460) was measured using a multi-plate reader (Flexstation 3, Molecular Device). The HDAC6 enzyme was tested using human recombinant HDAC6 (382180) (Calbiochem) according to the same protocol as the HDAC1 enzyme activity test method. Based on the resulting values, each IC50 value was calculated using GraphPad Prism4.0 program.

HDAC6 selectivity (fold) | IC50 [nM] | Compound
4167 | 24 | Cc1cccc(N(Cc2ccc(-c3nnc(C(F)F)o3)cn2)S(=O)(=O)C2CCN(C3CN(C(C)C)C3)CC2)c1 [Compound 11837, N-((5-(5-(difluoromethyl)-1,3,4-oxadiazol-2-yl)pyridin-2-yl)methyl)-1-(1-isopropylazetidin-3-yl)-N-(m-tolyl)piperidine-4-sulfonamide]
1754 | 57 | CC(C)(C)OC(=O)N(C(=O)C(F)F)C1CCN(CCS(=O)(=O)N(Cc2ccc(-c3nnc(C(F)F)o3)cc2)c2ccccc2)CC1 [Compound 11677, tert-butyl 2,2-difluoroacetyl(1-(2-(N-(4-(5-(difluoromethyl)-1,3,4-oxadiazol-2-yl)benzyl)-N-phenylsulfamoyl)ethyl)piperidin-4-yl)carbamate]
1000 | 100 | COc1ccccc1N(Cc1ccc(-c2nnc(C(F)(F)F)o2)cc1F)S(C)(=O)=O [Compound 11250, N-(2-fluoro-4-(5-(trifluoromethyl)-1,3,4-oxadiazol-2-yl)benzyl)-N-(2-methoxyphenyl)methanesulfonamide]
2114 | 47.3 | O=S(=O)(C1CCN(C2CC(O)C2)CC1)N(Cc1ccc(-c2nnc(C(F)F)o2)cn1)c1ccccc1 (stereo not shown) [Compound 11791, N-((5-(5-(difluoromethyl)-1,3,4-oxadiazol-2-yl)pyridin-2-yl)methyl)-1-(3-hydroxycyclobutyl)-N-phenylpiperidine-4-sulfonamide]
48 | 2100 | COc1cc(-c2nnc(C(F)(F)F)o2)ccc1CN(c1cccnc1)S(C)(=O)=O [Compound 11129, N-(2-methoxy-4-(5-(trifluoromethyl)-1,3,4-oxadiazol-2-yl)benzyl)-N-(pyridin-3-yl)methanesulfonamide]
1724 | 58 | O=S(=O)(CCN1CCOCC1)N(Cc1ccc(-c2nnc(C(F)F)o2)cc1)c1ccccc1 [Compound 11655, N-(4-(5-(difluoromethyl)-1,3,4-oxadiazol-2-yl)benzyl)-2-morpholino-N-phenylethanesulfonamide]
1503 | 66.5 | CS(=O)(=O)N(Cc1ccc(-c2nnc(C(F)F)o2)cc1F)c1ccc2ncoc2c1 [Compound 11774, N-(benzo[d]oxazol-6-yl)-N-(4-(5-(difluoromethyl)-1,3,4-oxadiazol-2-yl)-2-fluorobenzyl)methanesulfonamide]
370 | 270 | O=S(=O)(CCN1CCN(C/C=C/c2ccccc2)CC1)N(Cc1ccc(-c2nnc(C(F)F)o2)cc1)c1ccccc1 [Compound 11773, 2-(4-cinnamylpiperazin-1-yl)-N-(4-(5-(difluoromethyl)-1,3,4-oxadiazol-2-yl)benzyl)-N-phenylethane-1-sulfonamide]
1087 | 92 | CCS(=O)(=O)N(Cc1ccc(-c2nnc(C(F)F)o2)cn1)c1ccc(CN2CCN(S(C)(=O)=O)CC2)cc1 [Compound 11387, N-((5-(5-(difluoromethyl)-1,3,4-oxadiazol-2-yl)pyridin-2-yl)methyl)-N-(4-((4-(methylsulfonyl)piperazin-1-yl)methyl)phenyl)ethanesulfonamide]
192 | 520 | CS(=O)(=O)N(Cc1ccccn1)Cc1ccc(-c2nnc(C(F)(F)F)o2)cn1 [Compound 11128, N-(pyridin-2-ylmethyl)-N-((5-(5-(trifluoromethyl)-1,3,4-oxadiazol-2-yl)pyridin-2-yl)methyl)methanesulfonamide]
3448 | 29 | COC(=O)CCS(=O)(=O)N(Cc1ccc(-c2nnc(C(F)F)o2)cc1F)c1ccccc1 [Compound 11287, methyl 3-(N-(4-(5-(difluoromethyl)-1,3,4-oxadiazol-2-yl)-2-fluorobenzyl)-N-phenylsulfamoyl)propanoate]
123 | 809 | CS(=O)(=O)N(Cc1ccc(-c2nnc(C(F)F)o2)cn1)c1ccc2c(c1)CN(C1COC1)C2 [Compound 11735, N-((5-(5-(difluoromethyl)-1,3,4-oxadiazol-2-yl)pyridin-2-yl)methyl)-N-(2-(oxetan-3-yl)isoindolin-5-yl)methanesulfonamide]
893 | 112 | Cc1ccccc1N(Cc1ccc(-c2nnc(C(F)(F)F)o2)cc1F)S(C)(=O)=O [Compound 11248, N-(2-fluoro-4-(5-(trifluoromethyl)-1,3,4-oxadiazol-2-yl)benzyl)-N-(o-tolyl)methanesulfonamide]
4348 | 23 | O=S(=O)(CCN1CCN(C2COC2)CC1)N(Cc1ccc(-c2nnc(C(F)F)o2)cc1F)c1ccc(F)c(Cl)c1 [Compound 11583, N-(3-chloro-4-fluorophenyl)-N-(4-(5-(difluoromethyl)-1,3,4-oxadiazol-2-yl)-2-fluorobenzyl)-2-(4-(oxetan-3-yl)piperazin-1-yl)ethane-1-sulfonamide]
1176 | 85 | O=S(=O)(C1CCCCC1)N(Cc1ccc(-c2nnc(C(F)F)o2)cc1F)c1ccccc1 [Compound 11229, N-(4-(5-(difluoromethyl)-1,3,4-oxadiazol-2-yl)-2-fluorobenzyl)-N-phenylcyclohexanesulfonamide]
2849 | 35.1 | O=S(=O)(CCN1CCC[C@H]1CO)N(Cc1ccc(-c2nnc(C(F)F)o2)cc1)c1ccccc1 [Compound 11802, (S)—N-(4-(5-(difluoromethyl)-1,3,4-oxadiazol-2-yl)benzyl)-2-(2-(hydroxymethyl)pyrrolidin-1-yl)-N-phenylethane-1-sulfonamide]
1447 | 69.1 | CCN1CCN(CCS(=O)(=O)N(Cc2ccc(-c3nnc(C(F)F)o3)cc2)c2ccccc2)CC1 [Compound 11757, N-(4-(5-(difluoromethyl)-1,3,4-oxadiazol-2-yl)benzyl)-2-(4-ethylpiperazin-1-yl)-N-phenylethane-1-sulfonamide]
150 | 666 | O=S(=O)(c1cccnc1)N(Cc1ccc(-c2nnc(C(F)(F)F)o2)cc1F)c1cccc(C(F)(F)F)n1 [Compound 11253, N-(2-fluoro-4-(5-(trifluoromethyl)-1,3,4-oxadiazol-2-yl)benzyl)-N-(6-(trifluoromethyl)pyridin-2-yl)pyridine-3-sulfonamide]
1961 | 51 | CS(=O)(=O)N(Cc1ccc(-c2nnc(C(F)(F)F)o2)cc1F)c1cncc(F)c1 [Compound 11272, N-(2-fluoro-4-(5-(trifluoromethyl)-1,3,4-oxadiazol-2-yl)benzyl)-N-(5-fluoropyridin-3-yl)methanesulfonamide]
4032 | 24.8 | CCC(=O)N1CC(N2CCC(S(=O)(=O)N(Cc3ccc(-c4nnc(C(F)F)o4)cn3)c3cccc(Cl)c3)CC2)C1 [Compound 11782, N-(3-chlorophenyl)-N-((5-(5-(difluoromethyl)-1,3,4-oxadiazol-2-yl)pyridin-2-yl)methyl)-1-(1-propionylazetidin-3-yl)piperidine-4-sulfonamide]
